Data on two compounds can be found in publication PMC12527173, “Cytotoxic, anti-inflammatory, antioxidant, and anti-glyoxalase-I evaluation of chelating substances: In silico and in vitro study” (PLOS One, 2025).

Structures are written as SMILES. Where two headings read alike, the source gives them in different places.

The target in data set [1] is T1, human recombinant Glo-I enzyme (rhGlo-I) (Homo sapiens, UniProt Q04760).
T1 construct: N-terminal Met and 6-His tag (N); purchased R&D Systems; host or cells: E. coli
T1 sequence (Q04760 2-184 limits assumed): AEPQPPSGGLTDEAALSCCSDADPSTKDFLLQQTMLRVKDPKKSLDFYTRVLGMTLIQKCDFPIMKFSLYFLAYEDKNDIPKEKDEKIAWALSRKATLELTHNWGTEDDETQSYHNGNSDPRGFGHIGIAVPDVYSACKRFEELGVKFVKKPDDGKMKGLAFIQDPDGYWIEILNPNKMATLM
Further details: method as in PMID 34264188. The note with it: prior publication ref 87; read-out: IC50 against Glo-I; cited from earlier work.

Data set [2] concerns CACO2 colorectal cancer cell line. Kind of data set: SRB cytotoxicity assay, CACO2. Particulars: Homo sapiens, Caco-2, 72 h incubation, n = 12, read-out: Cytotoxicity (as of %Control) IC50 value CACO2. It counts as cell-based. Here is the method:
(§1) The cancer cell lines were cultured in DMEM supplemented with 10% FBS (Bio Whittaker, Verviers, Belgium), HEPES Buffer (10 mM), gentamicin (50 µg/mL), L-glutamine (100 μg/mL), streptomycin ([…]), penicillin (100 µg/mL), and 4-(2-hydroxyethyl)-1-piperazineethanesulfonic acid (HEPES) Buffer (Sigma, St. Luis, MO, USA). The Sulforhodamine B used was obtained from Santa Cruz Biotechnology, Inc. in Texas, USA. […] Periodontal ligament fibroblasts (PDL) were utilized to assess specific cytotoxicity. Cancer cell lines that have survived offer several benefits. They provide a consistent and uninterrupted source of cells, so bypassing any ethical concerns related to the use of human tissue. Additionally, they are cost-effective. The cytotoxicity levels were assessed using the Sulforhodamine B (SRB) colorimetric assay, provided by Santa Cruz Biotechnology, Inc. in Texas, USA. The Spectro Scan 80D UV-VIS spectrophotometer, manufactured by Sedico Ltd. in Nicosia, Cyprus, was employed for this cytotoxicity screening. The cells were co-incubated with substances or a reference agent at various doses ranging from 5 to 200 μg/mL. […] The reduction in cell viability was analyzed by plotting Dose-response curves and expressing the data as a percentage of the control optical density. The IC50 values were obtained using regression analysis.
(In general: Sulforhodamine B stains cellular protein and so reports cell mass.)

For data set [3], the system named is SW480 colorectal cancer cell line. Kind of data set: SRB cytotoxicity assay, SW480. It counts as cell-based. The note with it: Homo sapiens, 72 h incubation, n = 12, read-out: Cytotoxicity (as of %Control) IC50 value SW480. Here is the method:
as §1

Data set [4] deals with HCT116 colorectal cancer cell line. Kind of data set: SRB cytotoxicity assay, HCT116. It counts as cell-based. The note with it: Homo sapiens, HCT-116, 72 h incubation, n = 12, read-out: Cytotoxicity (as of %Control) IC50 value HCT116. The method, then:
as §1

Data set [5] relates to SW620 colorectal cancer cell line. Kind of data set: SRB cytotoxicity assay, SW620. It counts as cell-based. The note with it: Homo sapiens, SW-620, 72 h incubation, n = 12, read-out: Cytotoxicity (as of %Control) IC50 value SW620. Here is the method:
as §1

Data set [6] relates to HT-29 colorectal cancer cell line. Nature of the data set: SRB cytotoxicity assay, HT29. It counts as cell-based. Particulars: Homo sapiens, 72 h incubation, n = 12, read-out: Cytotoxicity (as of %Control) IC50 value HT29. Here is the method:
as §1

Data set [7] deals with PANC1 pancreatic cell line. Nature of the data set: SRB cytotoxicity assay, PANC1. It counts as cell-based. The note with it: Homo sapiens, PANC-1, 72 h incubation, n = 12, read-out: Cytotoxicity (as of %Control) IC50 value PANC1. The method, then:
as §1

The nature of data set [8]: SRB cytotoxicity assay, normal PDL fibroblasts. It counts as cell-based. Particulars: normal periodontal ligament (PDL) fibroblasts, 72 h incubation, 0.1–200 µM range, read-out: Cytotoxicity (as of %Control) IC50 value PDL fibroblasts. The method, then: as §1
For data set [9], the system named is A375 human skin cancer cell line. Kind of data set: SRB cytotoxicity assay, A375. Particulars: A-375, 72 h incubation, n = 12, read-out: Cytotoxicity (as of %Control) IC50 value A375 skin melanoma. It counts as cell-based. The method, then:
as §1

In data set [10] the test system is A549 lung cancer cell line. Nature of the data set: SRB cytotoxicity assay, A549. It counts as cell-based. Particulars: Homo sapiens, 72 h incubation, n = 12, read-out: Cytotoxicity (as of %Control) IC50 value A549 lung malignancy. The method, then:
as §1

The test system of data set [11] is Human PC3 prostate cancer cell line. Kind of data set: SRB cytotoxicity assay, PC3. It counts as cell-based. The note with it: 72 h incubation, n = 12, read-out: Cytotoxicity (as of %Control) IC50 value PC3 prostate malignancy. The method, then:
as §1

Data set [12] relates to Breast cancer cell line MCF7. Nature of the data set: SRB cytotoxicity assay, MCF7. It counts as cell-based. The note with it: Homo sapiens, 72 h incubation, n = 12, read-out: Cytotoxicity (as of %Control) IC50 value MCF7 mammary malignancy. The method, then: as §1
For data set [13], the system named is T47D breast cancer cell line. Nature of the data set: SRB cytotoxicity assay, T47D. The note with it: Homo sapiens, 72 h incubation, n = 12, read-out: Cytotoxicity (as of %Control) IC50 value T47D mammary malignancy. It counts as cell-based. The method, then:
as §1

The subject of data set [14] is HeLa uterine cervix adenocarcinoma cell line. Nature of the data set: SRB cytotoxicity assay, HeLa. It counts as cell-based. The note with it: Homo sapiens, 72 h incubation, n = 12, read-out: Cytotoxicity (as of %Control) IC50 value Hela cervix malignancy. Here is the method: as §1
Data set [15] is described as follows: DPPH free radical scavenger assay. The note with it: DPPH radical scavenging; n = 12. An excerpt:
This approach relies on the reduction of the radicals, which causes a change in colour from oxidized purple to reduced yellow. Primarily, Diphenyl-2-picryl-hydrazyl (DPPH) is reduced in a solution of methanol (MeOH) when a chemical that donates hydrogen is present. This reduction is due to the creation of the non-radical form DPPH-H. The alteration in colour can be precisely assessed by employing a spectrophotometer within the wavelength range of 515–520 nm. Unlike other assays for radical scavenging, the DPPH radical is stable and yields consistent spectroscopic data. A 0.2 mM DPPH solution was diluted with MeOH and then combined with treatment compounds and ascorbic acid in a 1:1 concentration ratio using a 96-well plate. […] The solution was then incubated for one hour, isolated from light. Subsequently, the alteration in absorbance at a wavelength of 517 nm was quantified using a microplate reader manufactured by Bio-Tek Instrument in the United States. Ascorbic acid served as a strong and traditional benchmark for comparing the effectiveness of radical scavenging agents. The DPPH radical scavenging activity inhibition was calculated using the following equation, where A denotes photometric absorbance: The formula to calculate the percentage difference between a control and a sample is: (A control – A sample)/ A control x 100% [71, 72].
(In general: Loss of DPPH colour is used to gauge radical scavenging.)

Data set [16] deals with LPS-primed RAW 264.7 murine macrophages (nitrite / iNOS). Nature of the data set: Anti-inflammatory (nitrite) determination in LPS-primed macrophages. It counts as cell-based. Particulars: Mus musculus. Here is the method:
The RAW 264.7 mouse macrophage cell line (ATCC® TIB-71) was cultivated in high glucose DMEM with 10% foetal bovine serum (FBS), 100 U/mL penicillin, 100 μg/mL streptomycin, and 100 μg/mL L-glutamate. The cells were incubated at 37°C in a humidified environment with 95% air and 5% CO2. Confluent macrophages (2 x 10^5/well) were cultured with lipopolysaccharide (LPS; 20 μg/mL; Sigma, St. Luis, MO, USA) and indomethacin (25–200 μg/mL) as the positive control, along with various concentrations (5–200 μg/mL) of treatment compounds. The cells were incubated for 24 hours. 100 μL of Griess reagent were combined with 100 μL portions of cell culture medium and left to incubate at room temperature for 10 minutes. The absorbance at a wavelength of 550 nm was measured using a microplate reader, namely the Spectro Scan 80D UV-VIS spectrophotometer manufactured by Sedico Ltd. in Nicosia, Cyprus. The nitrite concentration was assessed by comparing it to a standard curve of sodium nitrite. A cytotoxicity protocol using SRB was conducted to assess the impact of the test substances under study on RAW 264.7 viability.

The IC50 is the midpoint of a concentration-inhibition curve. As for `C[C@H](Cc1ccc(O)c(O)c1)[C@@H](C)Cc1ccc(O)c(O)c1` [4,4’-((2R,3S)-2,3-dimethylbutane-1,4-diyl)bis(benzene-1,2-diol)], the IC50 in [1] is 0.0365 µM.

For `O=c1c(O)c(-c2cc(O)c(O)c(O)c2)oc2cc(O)cc(O)c12` [Myricetin, reference compound], the IC50 in data set [2] turned out to be 106.5 ± 0.6 µM; in [3], 88.9 ± 14.1 µM; in data set [4] it was 44.7 ± 2.14 µM; in [5], 42.8 ± 0.78 µM; in [6], 32.6 ± 1.06 µM; in [7], 198 ± 43 µM. Besides, the IC50 in data set [9] came out at 51.7 ± 4.1 µM; in [10] it was 27.5 ± 4.47 µM; in data set [11], 65.4 ± 1.84 µM; in [12] it was 73 ± 0.78 µM; in data set [13] it was 29.8 ± 2.6 µM; in data set [14] it was 35.8 ± 4.4 µM. Moreover, the IC50 in data set [15] worked out at 70.7 ± 11.6 µM; in data set [16] (RAW264.7, 24 h, read-out: iNOS- IC50 value) it was 0.07 ± 0.01 µM; in data set [16] (RAW264.7, read-out: IC50, ability to reduce inflammation), 0.05 µM. The IC50 at 72 h in data set [8] was over 200 µM.
